The target in assay [1] is T1, DNA topoisomerase 1 (Homo sapiens) (UniProt P11387).
T1 sequence (whole entry): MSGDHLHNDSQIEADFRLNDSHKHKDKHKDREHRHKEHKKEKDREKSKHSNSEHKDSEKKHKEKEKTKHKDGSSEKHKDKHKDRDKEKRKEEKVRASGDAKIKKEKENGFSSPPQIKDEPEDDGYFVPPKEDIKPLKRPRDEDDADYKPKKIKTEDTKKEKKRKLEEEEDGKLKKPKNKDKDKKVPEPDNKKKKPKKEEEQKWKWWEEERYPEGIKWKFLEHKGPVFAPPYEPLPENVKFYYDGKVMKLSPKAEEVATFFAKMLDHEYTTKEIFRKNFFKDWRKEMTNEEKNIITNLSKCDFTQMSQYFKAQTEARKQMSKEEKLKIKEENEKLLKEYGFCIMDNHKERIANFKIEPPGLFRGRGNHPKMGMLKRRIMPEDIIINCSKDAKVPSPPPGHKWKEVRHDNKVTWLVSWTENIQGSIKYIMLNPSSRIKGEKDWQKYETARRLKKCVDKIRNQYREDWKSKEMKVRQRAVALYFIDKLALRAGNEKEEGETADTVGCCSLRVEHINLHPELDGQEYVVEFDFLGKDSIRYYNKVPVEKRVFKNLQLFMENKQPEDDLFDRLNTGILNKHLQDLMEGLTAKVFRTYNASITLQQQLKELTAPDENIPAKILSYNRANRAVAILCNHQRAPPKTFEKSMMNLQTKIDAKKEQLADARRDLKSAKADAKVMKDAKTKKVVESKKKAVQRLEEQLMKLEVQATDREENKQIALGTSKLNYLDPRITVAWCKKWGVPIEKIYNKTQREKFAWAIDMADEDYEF
Briefly: Inhibition of recombinant human topoisomerase 1 assessed as supercoiled pBR322 DNA at 25 uM incubated for 1 hr by ethidium bromide staining based agarose gel electrophoresis method relative to control. Details: scale not given: the % may be the effect or the level left.

For the next assay, the system named is DNA. Kind of assay: Induction of Escherichia coli plasmid pBR322 DNA cleavage assessed as increase in nicked circular DNA at 3.125 uM in presence of light irradiation and incubated for 1 hr by agarose gel electrophoresis relative to control. The assay is classed as nucleic-acid assay.

Structures are written as SMILES.

As for `CC1=CC(/C=C/c2ccc(OCCCc3ccc[n+](C)c3)c(OCCCc3ccc[n+](C)c3)c2)=[N+]2C1=C(c1ccc(OCCCc3ccc[n+](C)c3)c(OCCCc3ccc[n+](C)c3)c1)c1c(C)cc(/C=C/c3ccc(OCCCc4ccc[n+](C)c4)c(OCCCc4ccc[n+](C)c4)c3)n1[B-]2(F)F.[I-].[I-].[I-].[I-].[I-].[I-]`, the values for the Activity (in assay [1]; in the assay on DNA) were 66% and 41.5%, respectively.

For the origin of these results see ChEMBL document CHEMBL4406848, “Novel water soluble BODIPY compounds: Synthesis, photochemical, DNA interaction, topoisomerases inhibition and photodynamic activity properties” (Eur J Med Chem, 2019).
